Key:
Human plasma kallikrein = target: T1, Human plasma kallikrein (Homo sapiens, UniProt P03952); assay: Plasma Kallikrein Assay; assay type: biochemical; conditions: purified Human plasma kallikrein 0.5 nM, substrate Acetyl-K-P-R-AFC, pH 7.4
T1 construct: yields a heavy chain (371 amino acids) and a light chain (248 amino acids); purchased Enzyme Research Laboratories

human factor XIa = human factor XIa (Homo sapiens, UniProt P03951); assay: Factor XIa Assay; assay type: biochemical; conditions: human factor XIa 0.04 nM, substrate GPR-AFC, 30 min pre-incubation at 25° C., pH 7.4; read-out: FXIa IC50
Sequence of human factor XIa (P03951 388-625 limits assumed): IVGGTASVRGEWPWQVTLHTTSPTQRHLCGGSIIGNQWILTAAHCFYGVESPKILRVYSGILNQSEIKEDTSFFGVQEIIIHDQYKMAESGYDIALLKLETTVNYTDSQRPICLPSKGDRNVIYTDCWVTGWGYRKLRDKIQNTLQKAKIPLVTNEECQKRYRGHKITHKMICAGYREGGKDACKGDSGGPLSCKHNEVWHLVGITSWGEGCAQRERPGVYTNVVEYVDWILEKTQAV
Sequence of human factor XIa (P03951 19-387 partner limits assumed): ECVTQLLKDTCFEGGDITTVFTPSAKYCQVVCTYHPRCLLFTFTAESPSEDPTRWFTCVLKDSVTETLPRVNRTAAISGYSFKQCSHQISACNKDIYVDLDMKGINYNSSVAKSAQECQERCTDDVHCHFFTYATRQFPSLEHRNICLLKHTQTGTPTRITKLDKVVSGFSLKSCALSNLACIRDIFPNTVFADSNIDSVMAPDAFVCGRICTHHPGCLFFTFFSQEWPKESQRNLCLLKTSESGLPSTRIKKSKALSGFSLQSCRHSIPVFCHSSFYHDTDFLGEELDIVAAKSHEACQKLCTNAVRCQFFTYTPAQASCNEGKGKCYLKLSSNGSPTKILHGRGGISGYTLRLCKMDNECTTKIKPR

T1 sequence (P03952 391-638 limits assumed): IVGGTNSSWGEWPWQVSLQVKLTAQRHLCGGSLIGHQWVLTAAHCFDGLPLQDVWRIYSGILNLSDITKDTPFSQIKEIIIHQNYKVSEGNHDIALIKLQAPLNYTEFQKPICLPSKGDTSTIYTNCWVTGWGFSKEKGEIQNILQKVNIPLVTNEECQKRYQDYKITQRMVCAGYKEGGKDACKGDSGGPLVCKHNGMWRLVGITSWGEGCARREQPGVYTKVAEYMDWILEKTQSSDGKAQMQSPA
T1 sequence (P03952 20-390 partner limits assumed): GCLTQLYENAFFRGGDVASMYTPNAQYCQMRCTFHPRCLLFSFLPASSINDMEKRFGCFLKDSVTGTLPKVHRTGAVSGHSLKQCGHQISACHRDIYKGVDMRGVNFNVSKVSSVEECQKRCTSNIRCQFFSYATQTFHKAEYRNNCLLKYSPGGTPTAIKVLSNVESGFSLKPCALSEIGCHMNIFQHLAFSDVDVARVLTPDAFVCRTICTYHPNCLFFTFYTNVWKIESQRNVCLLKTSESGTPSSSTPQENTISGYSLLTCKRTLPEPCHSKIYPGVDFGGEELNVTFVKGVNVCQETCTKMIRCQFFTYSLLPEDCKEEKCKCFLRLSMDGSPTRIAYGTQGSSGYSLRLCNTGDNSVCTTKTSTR

Row | IC50 (Human plasma kallikrein) | IC50 (human factor XIa) | SMILES
1 | 1.2 nM | 4130 nM | C[C@@H](O)CNCC1CCCN1c1ncc(Cn2cc(NC(=O)c3cncc(-c4c(C(F)F)ccc(Cl)c4F)n3)cn2)cn1 (stereo partly drawn) [Example 154, 6-(3-Chloro-6-(difluoromethyl)-2-fluorophenyl)-N-(1-((2-(2-((((R)-2-hydroxypropyl)amino)methyl)pyrrolidin-1-yl)pyrimidin-5-yl)methyl)-1H-pyrazol-4-yl)pyrazine-2-carboxamide]
2 | 28.1 nM | 3330 nM | CC(c1cnc(N2CC3CC3C2)nc1)n1cc(NC(=O)c2nc(-c3c(C(F)F)ccc(Cl)c3F)cnc2N(C)C)cn1 (single isomer, unassigned) [Example 34, N-(1-((1R or 1S)-1-(2-(3-azabicyclo[3.1.0]hexan-3-yl)pyrimidin-5-yl)ethyl)-1H-pyrazol-4-yl)-6-(3-chloro-6-(difluoromethyl)-2-fluorophenyl)-3-(dimethylamino)pyrazine-2-carboxamide]
3 | 17.2 nM | 675 nM | CS(=O)(=O)c1ccc(Cl)c(F)c1-c1cncc(C(=O)Nc2cnn(Cc3cnc(N4CCC4)nc3)c2)n1 [Example 207, N-(1-((2-(Azetidin-1-yl)pyrimidin-5-yl)methyl)-1H-pyrazol-4-yl)-6-(3-chloro-2-fluoro-6-(methylsulfonyl)phenyl)pyrazine-2-carboxamide]
4 | 17.8 nM | 2150 nM | CC(c1cnc(N2CCC2)nc1)n1cc(NC(=O)c2cncc(-c3c(Br)ccc(Cl)c3F)n2)cn1 (stereo not drawn) [Example 62, N-(1-(1-(2-(Azetidin-1-yl)pyrimidin-5-yl)ethyl)-1H-pyrazol-4-yl)-6-(6-bromo-3-chloro-2-fluorophenyl)pyrazine-2-carboxamide]
5 | 23.1 nM | 1320 nM | C[C@H](c1cnc(N2CCC2)nc1)n1cc(NC(=O)c2cncc(-c3c(C(F)F)ccc(Cl)c3F)n2)cn1 (single isomer, unassigned) [Example 4]
6 | 10.2 nM | 1370 nM | Cc1cc(N2CCC2)ncc1Cn1cc(NC(=O)c2cncc(-c3c(C(F)F)ccc(Cl)c3F)n2)cn1 [Example 17, N-(1-((6-(Azetidin-1-yl)-4-methylpyridin-3-yl)methyl)-1H-pyrazol-4-yl)-6-(3-chloro-6-(difluoromethyl)-2-fluorophenyl)pyrazine-2-carboxamide]
7 | 1.2 nM | 4850 nM | CC(c1cnc(N2CC[C@H]2CN2CC[C@@H](O)C2)nc1)n1cc(NC(=O)c2cncc(-c3c(C(F)F)ccc(Cl)c3F)n2)cn1 (stereo partly drawn) [Example 163, 6-(3-Chloro-6-(difluoromethyl)-2-fluorophenyl)-N-(1-(1-(2-((S)-2-(((R)-3-hydroxypyrrolidin-1-yl)methyl)azetidin-1-yl)pyrimidin-5-yl)ethyl)-1H-pyrazol-4-yl)pyrazine-2-carboxamide]
8 | 1.5 nM | 9180 nM | CC(c1cnc(N2CC[C@H]2CN2C[C@@H](O)[C@H](F)C2)nc1)n1cc(NC(=O)c2cncc(-c3c(C(F)F)ccc(Cl)c3F)n2)cn1 (stereo partly drawn) [Example 169, 6-(3-Chloro-6-(difluoromethyl)-2-fluorophenyl)-N-(1-(1-(2-((S)-2-(((3R,4R)-3-fluoro-4-hydroxypyrrolidin-1-yl)methyl)azetidin-1-yl)pyrimidin-5-yl)ethyl)-1H-pyrazol-4-yl)pyrazine-2-carboxamide]
9 | 0.4 nM | 2340 nM | CC1(O)CCN(C[C@@H]2CCCN2c2ncc(Cn3cc(NC(=O)c4cncc(-c5c(C(F)F)ccc(Cl)c5F)n4)cn3)cn2)C1 (stereo partly drawn) [Example 144, 6-(3-Chloro-6-(difluoromethyl)-2-fluorophenyl)-N-(1-((2-((2S)-2-((3-hydroxy-3-methylpyrrolidin-1-yl)methyl)pyrrolidin-1-yl)pyrimidin-5-yl)methyl)-1H-pyrazol-4-yl)pyrazine-2-carboxamide]
10 | 1 nM | 8920 nM | CC(c1cnc(N2CC[C@H]2CN2CC(O)(C(C)C)C2)nc1)n1cc(NC(=O)c2cncc(-c3c(C(F)F)ccc(Cl)c3F)n2)cn1 (stereo partly drawn) [Example 173, 6-(3-Chloro-6-(difluoromethyl)-2-fluorophenyl)-N-(1-(1-(2-((S)-2-((3-hydroxy-3-isopropylazetidin-1-yl)methyl)azetidin-1-yl)pyrimidin-5-yl)ethyl)-1H-pyrazol-4-yl)pyrazine-2-carboxamide]
11 | 9.4 nM | 852 nM | C[C@H](O)c1ncc(-c2c(C(F)F)ccc(Cl)c2F)nc1C(=O)Nc1cnn(Cc2cnc(N3CCC3)nc2)c1 (single isomer, unassigned) [Example 134]
12 | 3.7 nM | 794 nM | Cc1nc(C(C)n2cc(NC(=O)c3cncc(-c4c(C(F)F)ccc(Cl)c4F)n3)cn2)cnc1N1CCC1 (single isomer, unassigned) [Example 40, (R or S)-N-(1-(1-(5-(azetidin-1-yl)-6-methylpyrazin-2-yl)ethyl)-1H-pyrazol-4-yl)-6-(3-chloro-6-(difluoromethyl)-2-fluorophenyl)pyrazine-2-carboxamide]
13 | 15.8 nM | 1110 nM | O=C(Nc1cnn(Cc2cnc(N3CCC3)nc2CO)c1)c1cncc(-c2c(C(F)F)ccc(Cl)c2F)n1 [Example 2, N-(1-((2-(Azetidin-1-yl)-4-(hydroxymethyl)pyrimidin-5-yl)methyl)-1H-pyrazol-4-yl)-6-(3-chloro-6-(difluoromethyl)-2-fluorophenyl)pyrazine-2-carboxamide]
14 | 10.2 nM | 921 nM | COc1ncc(-c2c(C(F)F)ccc(Cl)c2F)nc1C(=O)Nc1cnn(Cc2cnc(N3CCC3)nc2)c1 [Example 1, N-(1-((2-(Azetidin-1-yl)pyrimidin-5-yl)methyl)-1H-pyrazol-4-yl)-6-(3-chloro-6-(difluoromethyl)-2-fluorophenyl)-3-methoxypyrazine-2-carboxamide]
15 | 0.4 nM | 2170 nM | O=C(Nc1cnn(Cc2cnc(N3CCC[C@H]3CN3CC[C@@H](O)C3)nc2)c1)c1cncc(-c2c(C(F)F)ccc(Cl)c2F)n1 [Example 142, 6-(3-Chloro-6-(difluoromethyl)-2-fluorophenyl)-N-(1-((2-((S)-2-(((R)-3-hydroxypyrrolidin-1-yl)methyl)pyrrolidin-1-yl)pyrimidin-5-yl)methyl)-1H-pyrazol-4-yl)pyrazine-2-carboxamide]
16 | 14 nM | 662 nM | COc1ccc(-n2cnnn2)c(-c2cncc(C(=O)Nc3cnn(C(C)c4cnc(N5CCC5)nc4)c3)n2)c1 (single isomer, unassigned) [Example 61, (R or S)-N-(1-(1-(2-(Azetidin-1-yl)pyrimidin-5-yl)ethyl)-1H-pyrazol-4-yl)-6-(5-methoxy-2-(1H-tetrazol-1-yl)phenyl)pyrazine-2-carboxamide]
17 | 0.7 nM | 9430 nM | CC(c1cnc(N2CC[C@H]2CN2CCC(O)CC2)nc1)n1cc(NC(=O)c2cncc(-c3c(C(F)F)ccc(Cl)c3F)n2)cn1 (stereo partly drawn) [Example 179, 6-(3-Chloro-6-(difluoromethyl)-2-fluorophenyl)-N-(1-(1-(2-((S)-2-((4-hydroxypiperidin-1-yl)methyl)azetidin-1-yl)pyrimidin-5-yl)ethyl)-1H-pyrazol-4-yl)pyrazine-2-carboxamide]
18 | 11.9 nM | 927 nM | Cc1ncc(-c2c(C(F)F)ccc(Cl)c2F)nc1C(=O)Nc1cnn(C(C)c2cnc(N3CCC3)nc2)c1 (single isomer, unassigned) [Example 28, (R or S)-N-(1-(1-(2-(azetidin-1-yl)pyrimidin-5-yl)ethyl)-1H-pyrazol-4-yl)-6-(3-chloro-6-(difluoromethyl)-2-fluorophenyl)-3-methylpyrazine-2-carboxamide]
19 | 41.3 nM | 6090 nM | O=C(Nc1cnn(Cc2cnc(N3CCC3)nc2)n1)c1cncc(-c2c(C(F)F)ccc(Cl)c2F)n1 [Example 25, N-(2-((2-(Azetidin-1-yl)pyrimidin-5-yl)methyl)-2H-1,2,3-triazol-4-yl)-6-(3-chloro-6-(difluoromethyl)-2-fluorophenyl)pyrazine-2-carboxamide]
20 | 7.8 nM | 2170 nM | CC(c1cnc(N2CCC2)cn1)n1cc(NC(=O)c2cncc(-c3c(C(F)F)ccc(Cl)c3F)n2)cn1 (single isomer, unassigned) [Example 30, (R or S)-N-(1-(1-(5-(azetidin-1-yl)pyrazin-2-yl)ethyl)-1H-pyrazol-4-yl)-6-(3-chloro-6-(difluoromethyl)-2-fluorophenyl)pyrazine-2-carboxamide]
21 | 9.6 nM | 292 nM | O=C(Nc1cnn(Cc2cnc(N3CCC3)nc2)c1)c1cncc(-c2c(OC(F)F)ccc(Cl)c2F)n1 [Example 64, N-(1-((2-(Azetidin-1-yl)pyrimidin-5-yl)methyl)-1H-pyrazol-4-yl)-6-(3-chloro-6-(difluoromethoxy)-2-fluorophenyl)pyrazine-2-carboxamide]
22 | 14.6 nM | 2320 nM | NC(=O)c1ncc(-c2c(C(F)F)ccc(Cl)c2F)nc1C(=O)Nc1cnn(Cc2cnc(N3CCC3)nc2)c1 [Example 138, N^2-(1-((2-(Azetidin-1-yl)pyrimidin-5-yl)methyl)-1H-pyrazol-4-yl)-6-(3-chloro-6-(difluoromethyl)-2-fluorophenyl)pyrazine-2,3-dicarboxamide]
23 | 4.2 nM | 458 nM | Cc1nc(N2CCC2)ncc1Cn1cc(NC(=O)c2cncc(-c3c(C(F)F)ccc(Cl)c3F)n2)cn1 [Example 8, N-(1-((2-(Azetidin-1-yl)-4-methylpyrimidin-5-yl)methyl)-1H-pyrazol-4-yl)-6-(3-chloro-6-(difluoromethyl)-2-fluorophenyl)pyrazine-2-carboxamide]
24 | 0.7 nM | 5770 nM | CC(c1cnc(N2CC[C@H]2CN2CCC(C)(O)C2)nc1)n1cc(NC(=O)c2cncc(-c3c(C(F)F)ccc(Cl)c3F)n2)cn1 (stereo partly drawn) [Example 166, 6-(3-Chloro-6-(difluoromethyl)-2-fluorophenyl)-N-(1-(1-(2-((2S)-2-((3-hydroxy-3-methylpyrrolidin-1-yl)methyl)azetidin-1-yl)pyrimidin-5-yl)ethyl)-1H-pyrazol-4-yl)pyrazine-2-carboxamide]
